Results as given in PubChem BioAssay (NCI).
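Grown in 96-well plates, cells were treated for 48 hours with each compound at five concentrations. Insufficient inhibition: endpoint recorded as highest concentration tested. Definition used: TGI = concentration required for complete inhibition of growth.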

How the values were obtained:
Experiment in all cases: growth of human tumour cells (NCI), 48 h
[1] = system: NCI-H23 lung
[2] = system: A549 NSCLC
[3] = system: HS 578T breast
[4] = system: HT29 colon
[5] = system: UO-31 renal
[6] = system: K-562 leukemia
[7] = system: NCI-H522 lung
[8] = system: OVCAR-8 ovarian
[9] = system: COLO 205 colon
[10] = system: UACC-62 melanoma
[11] = system: U251 CNS
[12] = system: OVCAR-3 ovarian
[13] = system: MDA-MB-231 breast
[14] = system: IGROV1 ovarian
[15] = system: RPMI-8226 leukemia
[16] = system: SK-MEL-5 melanoma
[17] = system: MDA-MB-435
[18] = system: MDA-N
[19] = system: MOLT-4 leukemia
[20] = system: M14 melanoma
[21] = system: EKVX NSCLC
[22] = system: SF-268 CNS
[23] = system: NCI-H226 lung
[24] = system: HOP-62 NSCLC
[25] = system: SF-295 CNS
[26] = system: SNB-19 CNS
[27] = system: SR leukemia
[28] = system: SW-620 colon
[29] = system: NCI-H460 lung
[30] = system: T-47D breast
[31] = system: SK-MEL-28 melanoma
[32] = system: OVCAR-4 ovarian
[33] = system: HCT-15 colon
[34] = system: SN12C renal
[35] = system: HL-60(TB) leukemia
[36] = system: MCF7 breast
[37] = system: RXF 393 renal
[38] = system: SNB-75 CNS
[39] = system: UACC-257 melanoma
[40] = system: SK-OV-3 ovarian
[41] = system: 786-0 renal
[42] = system: HCT-116 colon
[43] = system: CCRF-CEM leukemia
[44] = system: SF-539 CNS
[45] = system: HCC-2998 colon
[46] = system: BT-549 breast
[47] = system: NCI/ADR-RES ovarian
[48] = system: TK-10 renal
[49] = system: DU-145 prostate
[50] = system: ACHN renal
[51] = system: PC-3 prostate
[52] = system: KM12 colon
[53] = system: A498 renal
[54] = system: CAKI-1 renal
[55] = system: SK-MEL-2 melanoma
[56] = system: MALME-3M melanoma
[57] = system: OVCAR-5 ovarian
[58] = system: HOP-92 NSCLC

With `COc1ccc(N2C(=O)C3c4[nH]c5cc(Cl)ccc5c4C4CCC(C(C)(C)C)CC4C3C2=O)cc1` (stereo not drawn) the TGI [1] was > 100 µM, the TGI [2] was > 100 µM and the TGI [3] was > 100 µM. The TGI [4] was > 100 µM, the TGI [5] was > 100 µM and the TGI [6] was > 100 µM. For the same molecule, the TGI [7] was > 100 µM, the TGI [8] was > 100 µM and the TGI [9] was > 100 µM. For the same molecule, the TGI [10] was > 100 µM, the TGI [11] was > 100 µM and the TGI [12] was > 100 µM. For the same molecule, the TGI [13] was > 100 µM, the TGI [14] was > 100 µM and the TGI [15] was > 100 µM. The TGI [16] was > 100 µM, the TGI [17] was > 100 µM and the TGI [18] was > 100 µM. For the same molecule, the TGI [19] was > 100 µM, the TGI [20] was > 100 µM and the TGI [21] was > 100 µM. For the same molecule, the TGI [22] was > 100 µM, the TGI [23] was > 100 µM and the TGI [24] was > 100 µM. The TGI [25] was > 100 µM, the TGI [26] was > 100 µM and the TGI [27] was 43.6 µM. For the same molecule, the TGI [28] was > 100 µM, the TGI [29] was > 100 µM and the TGI [30] was > 100 µM. The TGI [31] was > 100 µM, the TGI [32] was > 100 µM and the TGI [33] was > 100 µM. The TGI [34] was > 100 µM, the TGI [35] was 69.4 µM and the TGI [36] was > 100 µM. The TGI [37] was > 100 µM, the TGI [38] was > 100 µM and the TGI [39] was > 100 µM. For the same molecule, the TGI [40] was > 100 µM, the TGI [41] was > 100 µM and the TGI [42] was > 100 µM. For the same molecule, the TGI [43] was > 100 µM, the TGI [44] was > 100 µM and the TGI [45] was > 100 µM. The TGI [46] was > 100 µM, the TGI [47] was > 100 µM and the TGI [48] was > 100 µM. For the same molecule, the TGI [49] was > 100 µM, the TGI [50] was > 100 µM and the TGI [51] was > 100 µM. The TGI [52] was > 100 µM.

`CCCCCCCCCCCCCCC[C@@H](O)C[N+](C)(C)CCO` gave a TGI [1] of 10.7 µM, a TGI [2] of 29.1 µM and a TGI [3] of 7.53 µM. For the same molecule, the TGI [4] was 4.62 µM, the TGI [5] was 35.6 µM and the TGI [53] was > 100 µM. The TGI [6] was > 100 µM, the TGI [7] was 4.35 µM and the TGI [8] was 30 µM. The TGI [9] was 14.6 µM, the TGI [10] was 36.4 µM and the TGI [11] was 2.59 µM. The TGI [54] was 4.1 µM, the TGI [12] was > 93.6 µM and the TGI [13] was 7.85 µM. The TGI [14] was 2.11 µM, the TGI [15] was > 100 µM and the TGI [16] was 7.07 µM. The TGI [17] was 33.4 µM, the TGI [18] was 29.5 µM and the TGI [19] was > 24.5 µM. It also gave a TGI [20] of 41.1 µM, a TGI [21] of 37.4 µM and a TGI [22] of 6.66 µM. The TGI [23] was 14 µM, the TGI [24] was > 100 µM and the TGI [55] was 44.3 µM. For the same molecule, the TGI [25] was 10.1 µM, the TGI [26] was 3.81 µM and the TGI [27] was > 23.6 µM. The TGI [28] was > 45.4 µM, the TGI [29] was 5.01 µM and the TGI [30] was 55.6 µM. For the same molecule, the TGI [31] was 52.5 µM, the TGI [32] was 22.9 µM and the TGI [33] was 14 µM. The TGI [34] was 50.8 µM, the TGI [56] was 15.4 µM and the TGI [35] was 0.36 µM. It also gave a TGI [36] of 33.6 µM, a TGI [57] of 11.4 µM and a TGI [38] of 7.54 µM. For the same molecule, the TGI [39] was 49.2 µM, the TGI [40] was 36 µM and the TGI [41] was 3.07 µM. The TGI [42] was > 62.1 µM, the TGI [43] was 11.5 µM and the TGI [44] was 21.8 µM. For the same molecule, the TGI [45] was 4.81 µM, the TGI [58] was > 39.7 µM and the TGI [46] was 3.63 µM. The TGI [47] was 34.3 µM, the TGI [48] was 2.86 µM and the TGI [49] was 48.2 µM. For the same molecule, the TGI [50] was 24.1 µM and the TGI [52] was 1.4 µM.
